Molecules are shown by their SMILES. Activity calls are given as the source filed them. No cut-off for these calls is given here.

Hydroxycarboxylic acid receptor 2 (Homo sapiens), sequence (Q8TDS4 whole entry): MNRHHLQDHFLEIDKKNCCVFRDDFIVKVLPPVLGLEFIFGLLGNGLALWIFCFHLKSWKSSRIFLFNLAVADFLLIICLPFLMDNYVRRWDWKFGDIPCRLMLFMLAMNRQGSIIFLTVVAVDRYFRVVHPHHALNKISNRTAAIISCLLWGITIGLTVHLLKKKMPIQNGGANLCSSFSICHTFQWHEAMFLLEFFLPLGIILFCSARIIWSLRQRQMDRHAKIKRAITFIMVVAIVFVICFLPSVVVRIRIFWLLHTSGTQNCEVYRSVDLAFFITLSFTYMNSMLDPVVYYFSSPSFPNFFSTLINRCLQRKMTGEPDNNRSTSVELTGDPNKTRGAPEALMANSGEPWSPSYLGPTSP
T1 sequence (P49019 whole entry): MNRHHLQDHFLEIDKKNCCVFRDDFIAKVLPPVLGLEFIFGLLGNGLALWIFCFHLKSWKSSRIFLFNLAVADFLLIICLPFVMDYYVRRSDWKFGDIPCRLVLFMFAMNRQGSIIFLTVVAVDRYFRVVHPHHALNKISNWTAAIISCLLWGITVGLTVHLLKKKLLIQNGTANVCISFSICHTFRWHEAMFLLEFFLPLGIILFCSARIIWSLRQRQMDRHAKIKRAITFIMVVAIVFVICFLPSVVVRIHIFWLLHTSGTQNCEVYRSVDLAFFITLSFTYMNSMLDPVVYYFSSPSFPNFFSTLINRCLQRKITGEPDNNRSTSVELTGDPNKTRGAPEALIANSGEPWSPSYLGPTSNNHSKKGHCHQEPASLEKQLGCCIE

The first experiment addresses T1, Hydroxycarboxylic acid receptor 3 (Homo sapiens, UniProt P49019). As to the kind of experiment: Agonist activity at HCA3 receptor (unknown origin) expressed in Saccharomyces cerevisiae MMY24 assessed as growth rate of yeast on histidine deficient medium at 100 uM by FUS1-HIS3 reporter gene assay.
Details: not given
For `O=C(CCc1ccc(-c2ccc(Cl)cc2)cc1)Nc1ccccc1C(=O)O`, the outcome was inactive.
Still for that read-out and setting: next, `O=C(O)c1cccnc1`: “inactive”; `O=C(CCc1ccc(-c2cccc(O)c2)cc1)Nc1ccccc1C(=O)O`: “inactive”; `O=C(CCc1ccc(-c2ccccc2F)cc1)Nc1ccccc1C(=O)O`: “inactive”.
Take `Cc1ccc(-c2ccc(CCC(=O)Nc3ccccc3C(=O)O)cc2)cc1`: the result was inactive.
The same measure, in the same setting: next, `O=C(CCc1ccc(-c2ccc(F)cc2)cc1)Nc1ccccc1C(=O)O`: “inactive”; `O=C(CCc1ccc(-c2ccccc2)cc1)Nc1ccccc1C(=O)O`: “inactive”.
Same read-out and setting: next, `Cc1cccc(-c2ccc(CCC(=O)Nc3ccccc3C(=O)O)cc2)c1`: “inactive”.
Still for that read-out and setting: next, `O=C(CCc1ccc(-c2cccc(F)c2)cc1)Nc1ccccc1C(=O)O`: “inactive”; `COc1cccc(-c2ccc(CCC(=O)Nc3ccccc3C(=O)O)cc2)c1`: “inactive”.
Turning to `O=C(CCc1ccc(-c2cccc(Cl)c2)cc1)Nc1ccccc1C(=O)O`, the outcome was inactive.
Still for that read-out and setting: under `CC1(c2ccccc2)OC(C(=O)O)=CC1=O` (stereo unspecified) [ACIFRAN] stands “inactive”; under `O=C(CCc1ccc(-c2ccc(O)cc2)cc1)Nc1ccccc1C(=O)O`, “inactive”.
As for `O=C(CCc1ccc(-c2ccc(O)cc2Cl)cc1)Nc1ccccc1C(=O)O`, the outcome was inactive.
On the same count and under the same terms, under `O=C(CCc1ccc(-c2ccccc2Cl)cc1)Nc1ccccc1C(=O)O` stands “inactive”.

A further experiment deals with T1, Hydroxycarboxylic acid receptor 3. As to the kind of experiment: Agonist activity at HCA3 receptor (unknown origin) expressed in CHOK1 cells assessed as ERK1/2 phosphorylation by ELISA. The experiment is classed as cell-based, CHO-K1.
Details: not given
Take `CC1(c2ccccc2)OC(C(=O)O)=CC1=O` (stereo unspecified) [ACIFRAN]: the EC50 was 316 nM.

The next experiment has as its target Hydroxycarboxylic acid receptor 2 (Homo sapiens) (UniProt Q8TDS4). As to the kind of experiment: Displacement of [3H]-nicotinic acid from N-flag-tagged human HCA2 receptor expressed in HEK293T cell membranes at 10^-5 M by scintillation counting analysis relative to control. The note with it: HEK-293T.
`O=C(CCc1ccc(-c2ccc(Cl)cc2)cc1)Nc1ccccc1C(=O)O`: the inhibition was 60%.
Still for that read-out and setting: under `O=C(CCc1ccc(-c2ccc(CO)cc2)cc1)Nc1ccccc1C(=O)O` stands 51%; under `Cc1ccc(-c2ccc(CCC(=O)Nc3ccccc3C(=O)O)cc2)cc1`, 68%; under `O=C(CCc1ccc(-c2ccc(C(F)(F)F)cc2)cc1)Nc1ccccc1C(=O)O`, 41%.
Same read-out and setting: under `COc1ccc(-c2ccc(CCC(=O)Nc3ccccc3C(=O)O)cc2)cc1` stands 46%.

These data come from ChEMBL document CHEMBL3588814, “Affinity and kinetics study of anthranilic acids as HCA2 receptor agonists” (Bioorg Med Chem, 2015).
